Test results published in patent US20240166602A1, “SUBSTITUTED DIARYL COMPOUND AS WELL AS PREPARATION METHOD AND APPLICATION THEREOF” (SHANDONG FIRST MEDICAL UNIV & SHANDONG ACADEMY OF MEDICAL …, priority 2021, published 2024).
Like-named read-outs stand apart in the source and are kept apart here.

Assays:
Assay type in all cases: cell-based
[1] = tested on: human colon cancer (LOVO) cells; experiment: MTT tumor cell growth inhibition, human colon cancer (LOVO); settings: 48 h culture, MTT method, read-out: IC50 value of target compound against cancer cell proliferation, LOVO
Description: (§1) Dissolve CHJ compound series with dimethyl sultbxide (DMSO, final concentration 0.4%), and use RPMI-1640 culture medium containing 15% fetal calf serum to prepare 1 mg/mL solution for future use. During drug administration in groups, use the culture medium to dilute it to the concentration needed.
(§2) Cell lines: human lung cancer (A549), Inman ovarian cancer (SKOV3), human melanoma (A375) and human colon cancer (LOVO) cell lines, all purchased from the Cell Bank of the Chinese Academy of Sciences, DMEM containing 15% fetal bovine serum (High Glucose) culture medium, placed in a 37° C., 5% CO2 incubator.
(§3) MTT is an oxidizing yellow dye with the chemical name of 3-(4,5-dimethyl-2-thiazolyl)-2,5-diphenyl-2-H-tetrazoliumbromide tetrazole bromide. The MMT method, also known as the MTT colorimetric method, can test the survival and growth of cells. The method is simple and easily accessible and often used to screet the substance with cytotoxic activity. The basic principle of testing, is that succinodehydrogenase can reduce exogenous MIT so that MTT is reduced to blueviolet crystal Formazan insoluble to water. The crystal deposits in cells. The succinodehydrogenase exists in the mitochondria of living cells, not in the dead cells. Therefore, the chromogenic reaction can only take place in living cells. Then, dissolve the blueviolet crystal Formazan contained in cells with dimethyl sulfoxide (DMSO), and measure its absorbancy with microplate reader so that the count of living cells is reflected indirectly. Within the scope of certain cell count, the amount of blueviolet crystal Formazan formed is positively correlated to the count of living cells.
(§4) Human lung cancer (A549), human ovarian cancer (SKOV3), human melanoma (A375) and human colon cancer (LOVO) ceilsare all adherent. Based on the growth rate of tumor cells, wash the adherent tumor cells in the logarithmic phase and digest them in 0.25% EDTA pancreatic enzyme. Adjust the cell count to 1×10^5/mL and inoculate the cells in 96-pore plate, each pore containing 100 μL. Culture the cells in the 37° C. CO2 incubator, and administer the drug 24 h later. Add pharmaceutical (CJH compound series) of different concentrations to the administration group. Set up 5 dosage groups for each pharmaceutical, respectively 100, 10, 1, 0.1, 0.01 μmol/L. Set up three complex pores for each concentration. Set up blank control, DMSO (0.8%) solvent control and cis-platinum positive control. After 48 h of culture in the 37 ° C. incubator containing 5% CO2, measure the OD value through MTT method and calculate the cell inhibition ratio.
(§5) After 48 h of culture of human lung cancer (A549), human ovarian cancer (SKOV3). human melanoma (A375) and human colon cancer (LOVO) cells, stop it and add 10 μL 0.5% MTT solution to each pore. Place it in the CO2 incubator for 4 h. Remove the liquid from each pore, respectively add 0.2 mL DMSO solution, and oscillate it adequately on the table concentrator under low frequency so that the blueviolet crystal Formazan is dissolved adequately. Place it in the microplate reader and record the OD value at the wavelength of […]. Calculate the average OD value of three parallel pores of different concentrations, and calculate the cell inhibition ratio and IC50 of each tested pharmaceutical under different concentrations based on the average.
(§6) Inhibition ratio (%)=[1-tested sample OD/negative control group OD]×100%.

[2] = tested on: human melanoma (A375) cells; experiment: MTT tumor cell growth inhibition, human melanoma (A375); settings: A375, 48 h culture, MTT method, read-out: IC50 value of target compound against cancer cell proliferation, A375
Description: as §1, §2, §3, §4, §5, §6

[3] = tested on: human ovarian cancer (SKOV3) cells; experiment: MTT tumor cell growth inhibition, human ovarian cancer (SKOV3); settings: SKOV3, 48 h culture, MTT method, read-out: IC50 value of target compound against cancer cell proliferation, SKOV3
Description: as §1, §2, §3, §4, §5, §6

[4] = tested on: human lung cancer (A549) cells; experiment: MTT tumor cell growth inhibition, human lung cancer (A549); settings: A549, 48 h culture, MTT method, read-out: IC50 value of target compound against cancer cell proliferation, A549
Description: as §1, §2, §3, §4, §5, §6

| SMILES | IC50 ([1]; Homo sapiens) [µM] | IC50 ([2]; Homo sapiens, A-375) [µM] | IC50 ([3]; Homo sapiens, SK-OV-3) [µM] | IC50 ([4]; Homo sapiens) [µM] | IC50 [1] [µM] | IC50 [2] [µM] | IC50 [3] [µM] | IC50 [4] [µM] |
| --- | --- | --- | --- | --- | --- | --- | --- | --- |
| CCN(CC)CCOc1ccc(CN(C)CC(O)COc2ccc(Br)c(C(F)(F)F)c2)cc1OC (stereo not shown) [CHJ04093] | 14.5 ± 2.14 | 2.6 ± 1.22 | 10.2 ± 1.69 | 20.1 ± 2.01 |  |  |  |  |
| COc1cc(CN(C)CC(O)COc2cc(Cl)cc(Br)c2)ccc1OCCN1CCC(C)CC1 (stereo not shown) [CHJ04034, 1-(3-bromo-5-chlorophenoxy)-3-((3-methoxy-4-(2-(4-methylpiperidin1-yl)ethoxy)benzyl)(methyl)amino)propan-2-ol] | 1.16 ± 0.94 | 0.65 ± 0.14 | 3.06 ± 1.1 | 0.86 ± 0.45 |  |  |  |  |
| COc1cc(CN(C)CC(O)COc2cccc(Cl)c2)ccc1OCCN1CCC(C)CC1 (stereo not shown) [CHJ04024] | 18.6 ± 3.22 | 0.98 ± 0.76 | 1.37 ± 0.34 | 5.45 ± 1.03 |  |  |  |  |
| COc1cc(CN(C)CC(O)COc2ccccc2OC)ccc1OCCN1CCC(C)CC1 (stereo not shown) [CHJ04086] |  | 34.7 ± 3.42 |  |  |  |  |  |  |
| COc1cc(CN(C)CC(O)COc2ccccc2Br)ccc1OCCN1CCC(C)CC1 (stereo not shown) [CHJ03003, 1-(2-bromophenoxy)-3-((3-methoxy-4-(2-(4-methylpiperidin-1-yl)ethoxy)benzyl) (methyl)amino)propan-2-ol] | 0.7 ± 0.26 | 5.95 ± 0.42 | 3 ± 0.99 | 6.08 ± 0.9 |  |  |  |  |
| COc1cc(CN(C)CC(O)COc2ccc(Cl)cc2)ccc1OCCN1CCC(C)CC1 (stereo not shown) [CHJ04083, 1-(4-chlorophenoxy)-3((3-methoxy-4-(2-(4-methylpiperidin-1-yl)ethoxy)benzyl)(methyl)amino)propan-2-ol] | 1.23 ± 0.17 | 2.44 ± 1.03 | 10.4 ± 1.43 | 13.3 ± 2.02 |  |  |  |  |
| COc1cc(CN(C)CC(O)COc2ccccc2C(F)(F)F)ccc1OCCN1CCC(C)CC1 (stereo not shown) [CHJ04082] | 2.82 ± 1.05 | 7.51 ± 2.62 | 28.5 ± 5.22 | 22.3 ± 1.98 |  |  |  |  |
| COc1cc(CN(C)CC(O)COc2ccc(Cl)c(Br)c2)ccc1OCCN1CCC(C)CC1 (stereo not shown) [CHJ03043, 1-(3-bromo-4-chlorophenoxy)-3-((3-methoxy-4-(2-(4-methylpiperidia-1-yl)ethoxy)benzyl)(methyl)amino)propan-2-ol] | 0.95 ± 0.41 | 0.54 ± 0.26 | 2.9 ± 0.19 | 2.5 ± 1.32 |  |  |  |  |
| COc1ccc(OCC(O)CN(C)Cc2ccc(OCCN3CCC(C)CC3)c(OC)c2)cc1 (stereo not shown) [CHJ04084, 1-((3-methoxy-4-(2-(4-methylpiperidin-1-yl)ethoxy)benzyl)(methyl)amino)-3-(4-methoxyphenoxy)propan-2-ol] | 7.54 ± 1.02 | 16.7 ± 2.48 | 96.4 ± 2.72 | 42.7 ± 3.06 |  |  |  |  |
| CCN(CC)CCOc1ccc(CN(C)CC(O)COc2cc(C(F)(F)F)ccc2Br)cc1OC (stereo not shown) [CHJ04090, 1-(2-bromo-5-(trifluoromethyl)phenoxy)-3-((4-(2-(diethylamino)ethoxy)-3-methoxybenzyl)(methyl)amino)propan-2-ol] | 34 ± 2.59 | 11.7 ± 2.12 | 36.4 ± 2.17 | 35 ± 2.21 |  |  |  |  |
| COc1cc(CN(C)CC(O)COc2ccc(Br)c(C(F)(F)F)c2)ccc1OCCN1CCC(C)CC1 (stereo not shown) [CHJ02049, 1-(4-bromo-3-(trifluoromethyl)phenoxy)-3-((3-methoxy-4-(2-(4-methylpiperidin-1-yl)ethoxy)benzyl)(methyl)amino)propan-2-ol] | 1.25 ± 0.03 | 0.62 ± 0.04 | 0.62 ± 0.08 | 0.52 ± 0.23 |  |  |  |  |
| COc1cc(CN(C)CC(O)COc2ccc(Cl)c(Cl)c2)ccc1OCCN1CCCC1 (stereo not shown) [CHJ04072, 1-(3,4-dichlorophenoxy)-3-((3-methoxy-4-(2-(pyrrolidin-1-yl)ethoxy)benzyl)(methyl)amino)propan-2-ol] | 5.21 ± 2.31 | 2.26 ± 0.37 | 9.62 ± 4.23 | 12.5 ± 2.44 |  |  |  |  |
| COc1cc(CN(C)CC(O)COc2ccccc2C(C)C)ccc1OCCN1CCC(C)CC1 (stereo not shown) [CHJ03004, 1(2-isopropylphenoxy)-3-((3-methoxy-4-(2-(4-methylpiperidin-1yl)ethoxy)benzyl) (methyl)amino)propan-2-ol] | 2.54 ± 0.1 | 0.72 ± 0.8 | 6.19 ± 0.25 | 2.1 ± 1.25 |  |  |  |  |
| COc1cc(CN(C)CC(O)COc2cc(Cl)cc(Cl)c2)ccc1OCCN1CCC(C)CC1 (stereo not shown) [CHJ04012, 1-(3,5-dichlorophenoxy)-3-((3-methoxy-4-(2-(4-methylpiperidin-1-yl)ethoxy)benzyl) (methyl)amino)propan-2-ol] | 2.12 ± 0.04 | 1.24 ± 1.01 | 4.34 ± 0.32 | 6.38 ± 0.07 |  |  |  |  |
| N.N.[Cl][Pt][Cl] [cisplatin, reference compound] |  |  |  |  | 2.64 ± 1.12 | 5.91 ± 1.64 | 1.91 ± 0.43 | 4.21 ± 1.31 |
| COc1cc(CN(C)CC(O)COc2cc(C(F)(F)F)ccc2C(F)(F)F)ccc1OCCN1CCC(C)CC1 (stereo not shown) [CHJ02050, 1-(2,5-bis(trifluoromethyl)phenoxy)-3-((3-methoxy-4-(2-(4-methylpiperidin-1-yl)ethoxy)benzyl)(methyl)amino)propan-2-ol] | 3.88 ± 1.8 | 1.87 ± 0.07 | 4.04 ± 0.06 | 1.09 ± 1.55 |  |  |  |  |
| COc1cc(CN(C)CC(O)COc2ccc(Br)cc2OC)ccc1OCCN1CCC(C)CC1 (stereo not shown) [CHJ03005, 1-(4-bromo-2-methoxypbenoxy)-3-((3-methoxy-4-(2-(4-methylpiperidin-1-yl)ethoxy)benzyl)(methyl)amino)propan-2-ol] | 6.66 ± 0.11 | 5.6 ± 0.81 | 3.99 ± 0.21 | 15.6 ± 0.16 |  |  |  |  |
| COc1cc(CN(C)CC(O)COc2ccc(Br)c(C(F)(F)F)c2)ccc1OCCn1ccnc1 (stereo not shown) [CHJ04097, 1-((4-(2-(1H-imidazol-1-yl)ethoxy)-3-methoxybenzyl)(methyl)amino)-3-(4-bromo-3-(trifluoromethyl)phenoxy)propari-ol] | 32.1 ± 3.39 | 14.8 ± 2.77 | 33.6 ± 2.47 | 24.4 ± 2.78 |  |  |  |  |
| COc1cc(CN(C)CC(O)COc2ccc(Br)cc2)ccc1OCCN1CCC(C)CC1 (stereo not shown) [CHJ03014] | 0.53 ± 0.15 |  | 6.19 ± 0.62 | 1.09 ± 0.06 |  |  |  |  |
| COc1cc(CN(C)CC(O)COc2cc(F)cc(Br)c2)ccc1OCCN1CCC(C)CC1 (stereo not shown) [CHJ04023] | 3.07 ± 1.62 | 0.81 ± 0.33 | 8.03 ± 2.77 | 5.44 ± 2.54 |  |  |  |  |
| COc1cc(CN(C)CC(O)COc2cccc(C(C)C)c2)ccc1OCCN1CCC(C)CC1 (stereo not shown) [CHJ03015, 1-(3-isopropylphenoxy)-3-((3-methoxy-4-(2-(4-methylpiperidin-1-yl)ethoxy)benzyl) (methyl)amino)propan-2-ol] | 0.55 ± 0.21 |  | 4.47 ± 1.62 | 1.03 ± 0.13 |  |  |  |  |
| COc1cc(CN(C)CC(O)COc2cc(C(F)(F)F)ccc2Br)ccc1OCCN1CCCC1 (stereo not shown) [CHJ04065, 1-(-bromo-5-(trifluoromethyl)phenoxy)-3-((3-methoxy-4-(2-(pyrrolidin-1-yl)ethoxy)benzyl)(methyl)amino)propan-2-ol] | 3.14 ± 1.06 |  | 27.1 ± 1.62 | 25.5 ± 2.11 |  |  |  |  |
| COc1cc(CN(C)CC(O)COc2ccc(C)c(Br)c2)ccc1OCCN1CCC(C)CC1 (stereo not shown) [CHJ04010, 1-(3-bromo-4-methylphenoxy)-3-((3-methoxy-4-(2-(4-methylpiperidin-1-yl)ethoxy)benzyl)(methyl)amino)propan-2-ol] | 2.78 ± 0.23 | 0.45 ± 0.46 | 4.96 ± 1.26 |  |  |  |  |  |
